Columns and labels:
Assay type in all cases: cell-based
SMARCA4 = target: T1, SMARCA4 (Homo sapiens, UniProt P51532); assay: SMARCA4 Western blot MV4-11 degradation; conditions: 24 h; for Dmax: MV4-11, MV4-11 cells, read-out: SMARCA4 WB MV411 degradation 24 h: Average Dmax %; for DC50: MV4-11 cells, read-out: SMARCA4 WB MV411 degradation 24 h: Average external-Abs DC50
T1 construct: SMARCA2 and SMARCA4 protein degradation in MV4-11 cells; endogenous in cells; host or cells: MV4-11
Protocol: Cells were seeded into 6-well plates (MV4-11: 4×10^6 cells/well/1 ml) and 1 ml of 2× compound solution was added into the well to make the final concentration and the plates were mixed well and incubated for 24 hours (No cytotoxicity was observed). The cell were collected with media and spun at 3000 rpm for 5 minutes. The supernatant was aspirated and the well and the cells were washed with cold PBS once and combined for centrifugation again; the supernatant aspirated again. 200 ul pre-chilled RIPAlysis buffer (Boston BioProducts BP-115D) with protease/phosphatase inhibitor (Roche 05892791001/Roche 04906837001) was directly added into the tube to lyze the cells for 20 minutes on ice. The cell lysate were collected into EP tubes and spun at 13000 rpm for 20 minutes and 72 ul supernatant was transferred to a fresh EP tube containing 18 ul of 5× loading buffer (Beyotime Bio P0015) to make the loading samples. The samples were heated to 100° C. for 10 minutes and cooled to RT and microcentrifuged. 20 ul of samples were loaded onto SDS-PAGE gel (Novex, WG1402BOX) and the gel was run at 80 V for 20 minutes and 120 V for 1.5 hours. The samples were electrotransfer to a NC membrane using wet-transfer method with 250 mA for 2.5 hours. The membrane was blocked with LICOR blocking buffer (LI-COR, 927-50000) for 1 hour. The membrane was washed three times with TBST (CST #9997S), 5 minutes each. Incubation was performed with primary antibody prepared in blocking buffer with 0.1% Tween-20 (Solarbio, P8220) at 4° C. overnight (Anti-SMARCA2/BRM antibody (ab15597) 1:500; Anti-BRG1 antibody [EPR3912] (ab108318) 1:1000; Rabbit anti-Baf180 antibody [EPR15860] (Abcam, ab196022) 1:1000; mouse anti-beta-Actin (8H10D10) (CST #3700) 1:10000). The membrane was washed three times with TBST, 5 minutes each. Incubation with secondary antibody was performed for 1 hour at RT (anti-rabbit IgG (Licor, 926-32211) 1:5000; anti-mouse IgG (LI-COR, 926-68070) 1:5000). The membrane was washed three times with TBST, 5 minutes each and lastly the LiCOR was read.
The letter codes for the percentage of SMARCA degradation after 24 hours (Dmax %) include: A (>90% degradation), B (>70-90% degradation), C (50-70% degradation), and D (<50% degradation).

SMARCA2 [1] = target: T2, SMARCA2 (Homo sapiens, UniProt P51531); assay: MSD SMARCA2 degradation in NCI-H1299 cell line (24 h); set-up: HC: NCI-H1299 cells treated with DMSO; host or cells: NCI-H1299; conditions: for Dmax: NCI-H1299, NCI-H1299 cells; for DC50: NCI-H1299 cells, read-out: SMARCA2 MSD H1299 degradation 24 h: External Abs-DC50
T2 sequence (P51531 whole entry): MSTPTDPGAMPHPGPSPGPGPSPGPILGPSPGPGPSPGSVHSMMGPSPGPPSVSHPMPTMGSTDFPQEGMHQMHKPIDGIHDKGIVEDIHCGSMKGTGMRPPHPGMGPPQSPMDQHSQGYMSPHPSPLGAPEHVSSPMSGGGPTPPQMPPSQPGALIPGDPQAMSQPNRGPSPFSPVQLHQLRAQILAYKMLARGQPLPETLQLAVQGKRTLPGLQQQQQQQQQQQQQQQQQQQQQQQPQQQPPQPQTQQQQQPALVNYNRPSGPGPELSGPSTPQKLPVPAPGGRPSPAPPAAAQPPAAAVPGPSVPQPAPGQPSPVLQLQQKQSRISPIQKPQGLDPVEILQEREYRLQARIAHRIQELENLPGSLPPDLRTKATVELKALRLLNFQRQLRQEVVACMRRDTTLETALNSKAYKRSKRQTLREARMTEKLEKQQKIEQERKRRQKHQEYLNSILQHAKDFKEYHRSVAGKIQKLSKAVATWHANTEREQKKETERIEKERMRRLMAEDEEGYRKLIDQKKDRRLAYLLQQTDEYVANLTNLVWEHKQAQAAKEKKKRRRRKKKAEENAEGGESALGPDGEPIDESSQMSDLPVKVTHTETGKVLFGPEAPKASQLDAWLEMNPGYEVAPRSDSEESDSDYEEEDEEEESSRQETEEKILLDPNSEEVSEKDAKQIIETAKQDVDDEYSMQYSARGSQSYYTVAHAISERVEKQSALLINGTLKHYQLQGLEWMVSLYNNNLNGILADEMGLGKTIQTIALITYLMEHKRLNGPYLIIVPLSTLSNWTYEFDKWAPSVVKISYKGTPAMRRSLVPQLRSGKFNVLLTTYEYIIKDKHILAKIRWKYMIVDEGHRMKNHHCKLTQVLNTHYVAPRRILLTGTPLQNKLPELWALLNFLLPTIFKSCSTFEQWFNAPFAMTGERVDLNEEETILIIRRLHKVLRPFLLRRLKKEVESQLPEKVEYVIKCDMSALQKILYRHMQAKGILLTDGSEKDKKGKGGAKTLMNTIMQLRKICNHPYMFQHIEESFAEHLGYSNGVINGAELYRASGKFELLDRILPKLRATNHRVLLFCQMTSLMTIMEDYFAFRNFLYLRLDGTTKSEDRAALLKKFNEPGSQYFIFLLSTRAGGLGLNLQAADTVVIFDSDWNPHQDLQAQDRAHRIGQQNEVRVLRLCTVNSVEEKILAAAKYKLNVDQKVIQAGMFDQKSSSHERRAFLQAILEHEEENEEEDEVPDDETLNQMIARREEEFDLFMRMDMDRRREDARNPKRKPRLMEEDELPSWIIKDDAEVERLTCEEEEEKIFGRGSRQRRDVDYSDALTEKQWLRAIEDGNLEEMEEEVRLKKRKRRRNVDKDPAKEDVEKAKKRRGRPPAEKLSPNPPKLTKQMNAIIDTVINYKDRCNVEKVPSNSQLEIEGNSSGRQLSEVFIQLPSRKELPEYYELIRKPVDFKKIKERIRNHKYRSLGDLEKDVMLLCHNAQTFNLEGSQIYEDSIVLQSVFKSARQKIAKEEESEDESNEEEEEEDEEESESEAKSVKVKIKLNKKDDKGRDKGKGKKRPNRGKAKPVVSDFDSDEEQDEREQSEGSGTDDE
Summary of the method: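 SMARCA2 measured by MSD electrochemiluminescence (primary 0.3 ug/ml, secondary 1 ug/ml) on lysates from NCI-H1299 cells exposed to compounds for 24 h across nine 3-fold dilutions. Signal scaled from A2780 cells (no SMARCA2) to DMSO-treated H1299 controls, and maximal degradation after 24 h reported in letter categories.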

SMARCA2 [2] = target: T2, SMARCA2; assay: MSD SMARCA2 degradation in A549 cell line; conditions: 24 h; for Dmax: A549, A549 cells; for DC50: A549 cells, read-out: SMARCA2 MSD A549 degradation 24 h: Average external-Abs DC50
Summary of the method: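 SMARCA2 remaining was measured by MSD electrochemiluminescence on RIPA lysates (anti-SMARCA2 plus SULFO-TAG anti-rabbit). Prior exposure: 24 h of A549 cells to a 10-point, 3-fold dilution series topping at 1000 nM final; Dmax % given as graded codes.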

T1 sequence (P51532 whole entry): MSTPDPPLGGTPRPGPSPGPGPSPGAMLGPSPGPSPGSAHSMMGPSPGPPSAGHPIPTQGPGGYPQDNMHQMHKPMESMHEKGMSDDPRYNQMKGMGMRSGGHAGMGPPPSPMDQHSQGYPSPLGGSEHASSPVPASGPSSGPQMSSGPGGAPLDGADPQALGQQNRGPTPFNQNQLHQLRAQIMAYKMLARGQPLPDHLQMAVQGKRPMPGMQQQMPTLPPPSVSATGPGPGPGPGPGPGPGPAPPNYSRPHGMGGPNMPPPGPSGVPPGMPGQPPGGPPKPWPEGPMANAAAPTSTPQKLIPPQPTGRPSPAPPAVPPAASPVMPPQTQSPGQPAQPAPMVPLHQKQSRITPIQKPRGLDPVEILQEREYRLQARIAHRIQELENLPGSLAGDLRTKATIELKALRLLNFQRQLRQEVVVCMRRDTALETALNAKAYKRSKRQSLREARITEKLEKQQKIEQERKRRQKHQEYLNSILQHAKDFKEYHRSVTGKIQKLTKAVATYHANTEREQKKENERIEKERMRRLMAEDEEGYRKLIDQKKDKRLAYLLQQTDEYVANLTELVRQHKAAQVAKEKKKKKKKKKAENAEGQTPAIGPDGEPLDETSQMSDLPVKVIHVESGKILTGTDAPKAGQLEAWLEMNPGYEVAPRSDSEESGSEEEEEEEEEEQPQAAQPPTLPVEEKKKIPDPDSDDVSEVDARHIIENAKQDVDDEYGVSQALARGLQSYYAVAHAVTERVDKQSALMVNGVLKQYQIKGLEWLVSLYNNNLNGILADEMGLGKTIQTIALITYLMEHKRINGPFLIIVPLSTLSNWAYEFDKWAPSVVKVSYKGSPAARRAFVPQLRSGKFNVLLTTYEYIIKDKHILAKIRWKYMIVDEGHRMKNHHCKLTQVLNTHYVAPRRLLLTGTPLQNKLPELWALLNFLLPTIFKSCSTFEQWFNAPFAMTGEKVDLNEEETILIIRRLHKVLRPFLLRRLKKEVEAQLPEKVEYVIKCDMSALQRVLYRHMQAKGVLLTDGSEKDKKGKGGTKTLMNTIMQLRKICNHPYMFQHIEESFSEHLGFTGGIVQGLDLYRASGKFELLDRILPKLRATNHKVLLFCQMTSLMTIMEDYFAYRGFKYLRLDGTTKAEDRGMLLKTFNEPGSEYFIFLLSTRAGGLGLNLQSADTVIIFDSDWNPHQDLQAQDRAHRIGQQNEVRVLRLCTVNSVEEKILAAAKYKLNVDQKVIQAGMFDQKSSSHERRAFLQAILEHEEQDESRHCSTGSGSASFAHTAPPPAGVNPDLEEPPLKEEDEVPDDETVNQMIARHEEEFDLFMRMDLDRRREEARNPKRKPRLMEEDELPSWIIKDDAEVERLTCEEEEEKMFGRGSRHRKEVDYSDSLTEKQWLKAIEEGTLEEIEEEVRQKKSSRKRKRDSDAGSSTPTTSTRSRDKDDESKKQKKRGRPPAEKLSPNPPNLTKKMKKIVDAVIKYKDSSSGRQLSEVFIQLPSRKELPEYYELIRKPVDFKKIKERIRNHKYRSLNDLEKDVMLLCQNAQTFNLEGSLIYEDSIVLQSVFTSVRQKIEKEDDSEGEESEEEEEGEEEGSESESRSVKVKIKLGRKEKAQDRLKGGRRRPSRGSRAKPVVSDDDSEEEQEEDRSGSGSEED

CN(Cc1cnc(N2C3CCC2CN(c2cc(-c4ccccc4O)nnc2N)C3)nc1)CC1CCN(c2ccc3c(c2)n(C)c(=O)n3C2CCC(=O)NC2=O)CC1 (stereo not drawn) [I-282, 3-(5-(4-((((2-(3-(3-amino-6-(2-hydroxyphenyl)pyridazin-4-yl)-3,8-diazabicyclo[3.2.1]octan-8-yl)pyrimidin-5-yl)methyl)(methyl)amino)methyl)piperidin-1-yl)-3-methyl-2-oxo-2,3-dihydro-1H-benzo[d]imidazol-1-yl)piperidine-2,6-dione]
Dmax (SMARCA4): > 90% | DC50 (SMARCA4): < 0.1 µM | Dmax (SMARCA2 [1]): > 90% | DC50 (SMARCA2 [1]): < 0.1 µM

CN(CCCCCc1cnc(N2C3CCC2CN(c2cc(-c4ccccc4O)nnc2N)C3)nc1)Cc1ccc2c(c1)n(C)c(=O)n2C1CCC(=O)NC1=O (stereo not drawn) [I-283]
Dmax (SMARCA4): > 90% | DC50 (SMARCA4): < 0.1 µM | Dmax (SMARCA2 [1]): > 90% | DC50 (SMARCA2 [1]): < 0.1 µM

Cn1c(=O)n(C2CCC(=O)NC2=O)c2ccc(CCC(=O)N3CCC(c4cnc(N5C6CCC5CN(c5cc(-c7ccccc7O)nnc5N)C6)nc4)CC3)cc21 (stereo not drawn) [I-286]
Dmax (SMARCA4): > 90% | DC50 (SMARCA4): < 0.1 µM | Dmax (SMARCA2 [1]): 70 to 90% | DC50 (SMARCA2 [1]): 0.1 to 0.5 µM

Cn1c(=O)n(C2CCC(=O)NC2=O)c2ccc(CCCN3CCC(c4cnc(N5CCN(c6cc(-c7ccccc7O)nnc6N)CC5)nc4)CC3)cc21 (stereo not drawn) [I-288]
Dmax (SMARCA4): > 90% | DC50 (SMARCA4): < 0.1 µM | Dmax (SMARCA2 [1]): > 90% | DC50 (SMARCA2 [1]): < 0.1 µM

Cc1ncsc1-c1ccc(CNC(=O)[C@@H]2C[C@@H](O)CN2C(=O)[C@@H](NC(=O)CCCN(C)CC#Cc2cnc(N3C4CCC3CN(c3cc(-c5ccccc5O)nnc3N)C4)nc2)C(C)(C)C)cc1 [I-497]
Dmax (SMARCA2 [2]): < 50% | DC50 (SMARCA2 [2]): > 1 µM

Cc1ncsc1-c1ccc(CNC(=O)[C@@H]2C[C@@H](O)CN2C(=O)[C@@H](NC(=O)CN2CCC(c3cccc(C#Cc4cc(NC(=O)Nc5cc(F)ncc5CO)ccn4)c3)CC2)C(C)(C)C)cc1 [I-498]
Dmax (SMARCA2 [2]): < 50% | DC50 (SMARCA2 [2]): > 1 µM

Cc1ncsc1-c1ccc(CNC(=O)[C@@H]2C[C@@H](O)CN2C(=O)[C@@H](NC(=O)CCCN2CCC(c3cccc(C#Cc4cc(NC(=O)Nc5cc(F)ncc5CO)ccn4)c3)CC2)C(C)(C)C)cc1 [I-499, (2S,4R)-1-[(2S)-2-[4-[4-[3-[2-[4-[[2-fluoro-5-(hydroxymethyl)-4-pyridyl]carbamoylamino]-2-pyridyl]ethynyl]phenyl]-1-piperidyl]butanoylamino]-3,3-dimethyl-butanoyl]-4-hydroxy-N-[[4-(4-methylthiazol-5-yl)phenyl]methyl]pyrrolidine-2-carboxamide]
Dmax (SMARCA2 [2]): < 50% | DC50 (SMARCA2 [2]): > 1 µM

Cc1ncsc1-c1ccc(CNC(=O)[C@@H]2C[C@@H](O)CN2C(=O)[C@@H](NC(=O)CN2CCC(c3ccc(C#Cc4cc(NC(=O)Nc5cc(F)ncc5CO)ccn4)cc3)CC2)C(C)(C)C)cc1 [I-500, (2S,4R)-1-((S)-2-(2-(4-(4-((4-(3-(2-fluoro-5-(hydroxymethyl)pyridin-4-yl)ureido)pyridin-2-yl)ethynyl)phenyl)piperidin-1-yl)acetamido)-3,3-dimethylbutanoyl)-4-hydroxy-N-(4-(4-methylthiazol-5-yl)benzyl)pyrrolidine-2-carboxamide]
Dmax (SMARCA2 [2]): < 50% | DC50 (SMARCA2 [2]): > 1 µM

Cc1ncsc1-c1ccc(CNC(=O)[C@@H]2C[C@@H](O)CN2C(=O)[C@@H](NC(=O)CCCN2CCC(c3ccc(C#Cc4cc(NC(=O)Nc5cc(F)ncc5CO)ccn4)cc3)CC2)C(C)(C)C)cc1 [I-501]
Dmax (SMARCA2 [2]): < 50% | DC50 (SMARCA2 [2]): > 1 µM

Cc1ncsc1-c1ccc(CNC(=O)[C@@H]2C[C@@H](O)CN2C(=O)[C@@H](NC(=O)N2CCC3(CCC(c4cnc(N5C6CCC5CN(c5cc(-c7ccccc7O)nnc5N)C6)nc4)CC3)CC2)C(C)(C)C)cc1 [I-510]
Dmax (SMARCA2 [2]): > 90% | DC50 (SMARCA2 [2]): 0.1 to 0.5 µM

Cc1ncsc1-c1ccc(CNC(=O)[C@@H]2C[C@@H](O)CN2C(=O)[C@@H](NC(=O)C2(F)CC2)C2CCC(N(C)CCCC#Cc3cnc(N4C5CCC4CN(c4cc(-c6ccccc6O)nnc4N)C5)nc3)CC2)cc1 (stereo partly drawn) [I-517]
Dmax (SMARCA2 [2]): 50 to 70% | DC50 (SMARCA2 [2]): 0.501 to 1 µM

Cc1ncsc1-c1ccc(CNC(=O)[C@@H]2C[C@@H](O)CN2C(=O)C(NC(=O)C2(F)CC2)C2CCC(N(C)CCCCCc3cnc(N4C5CCC4CN(c4cc(-c6ccccc6O)nnc4N)C5)nc3)CC2)cc1 (stereo partly drawn) [I-519]
Dmax (SMARCA2 [2]): < 50% | DC50 (SMARCA2 [2]): > 1 µM

Cc1ncsc1-c1ccc(CNC(=O)[C@@H]2C[C@@H](O)CN2C(=O)C(NC(=O)C2(F)CC2)C2CCC(N(C)CCCCCCCc3cnc(N4C5CCC4CN(c4cc(-c6ccccc6O)nnc4N)C5)nc3)CC2)cc1 (stereo partly drawn) [I-520, (2S,4R)-1-[2-[4-[7-[2-[3-[3-amino-6-(2-hydroxyphenyl)pyridazin-4-yl]-3,8-diazabicyclo[3.2.1]octan-8-yl]pyrimidin-5-yl]heptyl-methyl-amino]cyclohexyl]-2-[(1-fluorocyclopropanecarbonyl)amino]acetyl]-4-hydroxy-N-[[4-(4-methylthiazol-5-yl)phenyl]methyl]pyrrolidine-2-carboxamide]
Dmax (SMARCA2 [2]): < 50% | DC50 (SMARCA2 [2]): > 1 µM

COCC(=O)N1CCCc2cc(OCC(=O)NCCCN3CCC(c4cnc(N5C6CCC5CN(c5cc(-c7ccccc7O)nnc5N)C6)nc4)CC3)ccc21 [I-526]
Dmax (SMARCA2 [2]): < 50% | DC50 (SMARCA2 [2]): > 1 µM

COc1ccccc1-c1cc(N2CC3CCC(C2)N3c2ncc(C3CCN(CCCNC(=O)COc4ccc5c(c4)CCCN5C(=O)CCl)CC3)cn2)c(N)nn1 [I-527]
Dmax (SMARCA2 [2]): < 50% | DC50 (SMARCA2 [2]): > 1 µM

Nc1nnc(-c2ccccc2O)cc1N1CC2CCC(C1)N2c1ncc(C2CCN(CCCCNC(=O)COc3ccc4c(c3)CCCN4C(=O)CCl)CC2)cn1 [I-528]
Dmax (SMARCA2 [2]): < 50% | DC50 (SMARCA2 [2]): > 1 µM

Nc1nnc(-c2ccccc2O)cc1N1CC2CCC(C1)N2c1ncc(C2CCN(CCCCCCNC(=O)COc3ccc4c(c3)CCCN4C(=O)CCl)CC2)cn1 [I-529]
Dmax (SMARCA2 [2]): < 50% | DC50 (SMARCA2 [2]): > 1 µM

Nc1nnc(-c2ccccc2O)cc1N1CC2CCC(C1)N2c1ncc(C2CCN(CCCCOc3ccc(Oc4ccc(N(Cc5ccccc5)C(=O)CCl)cc4)cc3)CC2)cn1 [I-530]
Dmax (SMARCA2 [2]): < 50% | DC50 (SMARCA2 [2]): > 1 µM

Nc1nnc(-c2ccccc2O)cc1N1CC2CCC(C1)N2c1ncc(C2CCN(CCCCCCOc3ccc(Oc4ccc(N(Cc5ccccc5)C(=O)CCl)cc4)cc3)CC2)cn1 [I-531]
Dmax (SMARCA2 [2]): < 50% | DC50 (SMARCA2 [2]): > 1 µM

Nc1nnc(-c2ccccc2O)cc1N1CC2CCC(C1)N2c1ncc(C2CCN(CCCCCCCCOc3ccc(Oc4ccc(N(Cc5ccccc5)C(=O)CCl)cc4)cc3)CC2)cn1 [I-532]
Dmax (SMARCA2 [2]): 50 to 70% | DC50 (SMARCA2 [2]): > 1 µM

Nc1nnc(-c2ccccc2O)cc1N1CC2CCC(C1)N2c1ncc(C2CCN(CCCCCCCCCCOc3ccc(Oc4ccc(N(Cc5ccccc5)C(=O)CCl)cc4)cc3)CC2)cn1 [I-533, N-(4-(4-((10-(4-(2-(3-(3-amino-6-(2-hydroxyphenyl)pyridazin-4-yl)-3,8-diazabicyclo[3.2.1]octan-8-yl)pyrimidin-5-yl)piperidin-1-yl)decyl)oxy)phenoxy)phenyl)-N-benzyl-2-chloroacetamide]
Dmax (SMARCA2 [2]): < 50% | DC50 (SMARCA2 [2]): > 1 µM

CC(C)(C)[C@H](NC(=O)[C@H]1CC2(C1)C[C@H](N1CCC(c3cnc(N4C5CCC4CN(c4cc(-c6ccccc6O)nnc4N)C5)nc3)CC1)C2)C(=O)N1C[C@H](O)C[C@H]1C(=O)NOc1ccc(-c2ccccc2F)cc1 (stereo partly drawn) [I-538, (2S,4R)-1-[(2S)-2-[[2-[4-[2-[3-[3-amino-6-(2-hydroxyphenyl)pyridazin-4-yl]-3,8-diazabicyclo[3.2.1]octan-8-yl]pyrimidin-5-yl]-1-piperidyl]spiro[3.3]heptane-6-carbonyl]amino]-3,3-dimethyl-butanoyl]-N-[4-(2-fluorophenyl)phenoxy]-4-hydroxy-pyrrolidine-2-carboxamide]
DC50 (SMARCA2 [2]): > 1 µM
